This series relates to full skin models. The format is cell-based, human. The conditions noted are these: for cell viability: human. The procedure:
Additionally, the influence on the cell viability and the release of lactate dehydrogenase (LDH) was examined over the incubation time. Disruptions of the cell membranes can be measured by the release of the cytosolic enzyme LDH and be evaluated as a marker for cellular necrosis. As the biocompatibility of the material is determined by further cellular and molecular factors, the analysis of the cellular interleukin release allows the conclusion on e.g. pro-inflammatory effects of the substances, which would not be possible to be detected by sole cytotoxicity. Such interleukins are interleukins 1α, 6 or 8, which are involved in coordinating the cellular proliferation, cell migration and possible inflammatory processes. Such a method is described in, for example, Wiegand C, Hipler UC. Evaluation of biocompatibility and cytotoxicity using keratinocyte and fibroblast cultures. Skin Pharmacol Physiol 2009; 22:74-82; Wiegand C, Winter D, Hipler UC. Molecular-weight-dependent toxic effects of chitosans on the human keratinocyte cell line HaCaT. Skin Pharmacol Physiol. 2010;23(3):164-70.
The spore suspensions and the solutions of sertaconazol, ciclopiroxolamin and terbinafin were prepared as in Example 1, wherein the respective test concentrations were obtained by diluting these solutions in ultrapure water (WFI; Fresenius Kabi) instead of SGB (Merck). Full skin models were produced as previously described [Reddersen K, Wiegand C, Elsner P, Hipler UC. Three-dimensional human skin model infected with Staphylococcus aureus as a tool for evaluation of bioactivity and biocompatibility of antiseptics. Int J Antimicrob Agents. 2019; 54(3):283-291; Wiegand C, Fink S, Beier O, Horn K, Pfuch A, Schimanski A, Grünler B, Hipler UC, Elsner P. Dose- and Time-Dependent Cellular Effects of Cold Atmospheric Pressure Plasma Evaluated in 3D Skin Models. Skin Pharmacol Physiol. 2016;29(5):257-265].Particularly, normal human dermal fibroblasts (NHDF; Lot 1060702.1, Promocell) and normal human epidermal keratinocytes (NHEK; Lot 9100102, Promocell) were used. Fibroblasts were cultivated in Dulbecco's modified eagle medium (DMEM; Lot MC09049P, Amimed), with 2% foetal calf serum (Lot P160509; PAN), 5 ng/mL hFGF (Lot 0329586; novoprotein) and 5 µg/ml Insulin (Lot H07443P, AMIMED) at 37°C and a 5% CO2 atmosphere. Keratinocytes were cultivated in keratinocyte medium (KBM, Lot 446M063, Promocell) at 37°C and a 5% CO2 atmosphere. The cultivation was performed over 7 days in 75 cm^2 cell culture flasks (Greiner Bio-One). The cells were subsequently detached with Trypsin-EDTA (Lot 2091326; Gibco) and dissolved in the respective medium. For producing the dermis equivalent, fibroblasts were cultivated in 12-well inserts (Greiner bio-one) with DMEM (Lot MC09049P, Amimed) + 10% foetal calf serum (Lot P160509, PAN) + 1% Gentamycin (Lot 2027100, Gibco) + 150 µg/ml ascorbic acid (Lot BCBS1081V, Sigma) for 3 weeks at […] and 5 % CO2. The medium was changed all 2-3 days. Before seeding the keratinocytes for producing the […], the medium surrounding the insert was completely removed and the dermis upper layer was coated with fibronectin (50 µg/mL; Lot 435P078, Promocell). After 30 min of incubation of the dermis equivalent with fibronectin, the seeding of the keratinocytes was performed with 2 × 10^5 cells / insert in KBM (Lot 446M063, Promocell) + 5% FKS (Lot P160509, PAN) + 1% Gentamycin (Lot 2027100, Gibco). Subsequently, the skin models were incubated for 45 min in the incubator before the models were flooded with KBM + 5% FKS + 1% Gentamycin. The skin models were cultivated for 7 days by submersion in the medium with decreasing foetal calf serum concentration (5 %, 2 %, 0 %). The medium was changed all 2-3 days. After the cultivation by submersion, the skin models were further cultivated for 12 days at the air-medium interface (airlift cultivation). […]

As a reminder, the cell viability is a read-out of living cells in per cent, often relative to untreated cells. Lower therefore signals more harm to the cells.

Consider `Cc1cc(C2CCCCC2)n(O)c(=O)c1` [Ciclopiroxolamin, ciclopiroxolamin], for which the “effect on the cell viability of the full skin models” value was “did not have a negative effect”, the “secretion of LDH” value was “no significant secretion” and the cell viability was not below 70%.
The like results for `Clc1ccc(C(Cn2ccnc2)OCc2csc3c(Cl)cccc23)c(Cl)c1` (stereo not drawn) [Sertaconazol, sertaconazol] were, in that order, “did not have a negative effect”, “no significant secretion” and not below 70%.
For `CN(C/C=C/C#CC(C)(C)C)Cc1cccc2ccccc12` [Terbinafin, terbinafin], the “effect on the cell viability of the full skin models” value is recorded as “did not have a negative effect”, the “secretion of LDH” value is given as “no significant secretion” and the cell viability was not below 70%.
